Data: article doi:10.1101/2025.07.06.663376v1, “Fubylation as a Druggable Ubiquitin-Like Conjugation System Controlling Hippo Pathway Activity” (biorxiv, 2025)

What was measured:
Format in all cases: binding
FAU = molecular target: T1, FAU (Homo sapiens, UniProt P62861); experiment: photo-crosslinking, rhodamine-azide click, in-gel fluorescence
T1 construct: uncleaved FAU precursor (FUBI fused to ribosomal protein S30); GST-tagged (pGEX-6P-1), E. coli BL21, glutathione agarose

FUBI [1] = molecular target: T2, FUBI (Homo sapiens, UniProt P62861); experiment: as above
T2 construct: gene FAU; mature FUBI (74 residues, ends VAGRMLGG) cut from the FAU precursor (FUBI-eS30 fusion); E. coli BL21; GST-FUBI (pGEX-6P-1) for photolabelling; untagged FUBI (6-HIS-SUMO removed by ULP1) for HDX-MS; printed peptides 32-42 EGIAPEDQVVL and 67-74 VAGRMLGG
Source text: photo-crosslinking, rhodamine-azide click, in-gel fluorescence on FUBI | recombinant preparations of FUBI, but not S30, were dose-dependently labeled by mCMN927

FUBI [2] = molecular target: T2, FUBI; experiment: HDX-MS (also competition of probe labelling); conditions: untagged FUBI 5 µM, 600 µM compound, 20 mM Tris-HCl, 100 mM NaCl, pH 8.0, 25 °C; non-covalent; residues 32-42 and 67-74

C#CCCC1(CCN(C)CC2CCN(c3nc(-c4ccncc4)nc4ccccc34)CC2)N=N1 [mCMN927, {2-[3-(but-3-yn-1-yl)diazirin-3-yl]ethyl}(methyl)({1-[2-(pyridin-4-yl)quinazolin-4-yl]piperidin-4-yl}methyl)amine]
EC50 (FAU): 4.3 µM | EC50 (FUBI [1]): 3.5 µM

CN(C)CC1CCN(c2nc(-c3ccncc3)nc3ccccc23)CC1 [sCMF231]
HDX-MS (also competition of probe labelling) (FUBI [2]): sCMF231 treatment reduced deuterium exchange within two key regions
